Tests used:
Botrytis cinerea [1] = test: In vitro antifungal activity, 96-well microtiter plates; type: cell-based; settings: in vitro 25° C., natamycin 1.25 ppm
Description: The following compositions were tested: […] Subsequently, 100 μl of a Botrytis cinerea suspension prepared in PCB medium was used to inoculated each well with 2.5×10^3 spores/ml. […] The expected antifungal activity (E in %) of the active ingredient combination was calculated according to the Colby equation (Colby, 1967): […] wherein X and Y are the observed antifungal activities (in %) of the individual active ingredients X and Y, respectively.

Penicillium italicum = test: Treatment of wounded mandarins inoculated with Penicillium italicum (mould growth); type: in vivo
Description: Ten fresh, organic mandarins were used per treatment. The peel of each mandarin was wounded once using a cork borer according to the method described by de Lapeyre de Bellaire and Dubois (1987). Subsequently, each wound was inoculated with 10 μl of a Penicillium italicum suspension containing 1×10^4 of spores/ml. […] The pH of the composition was 4.0. […]

Botrytis cinerea [2] = test: Treatment of wounded strawberries inoculated with Botrytis cinerea (mould growth); type: in vivo; settings: 250 ppm natamycin; for Number of moulded wounds/total number of 12 wounds (title: Number of moulded strawberries): strawberries 20° C.; for Observed antifungal activity O: strawberries
Description: Twelve fresh, organic strawberries were used per treatment. Each strawberry was wounded with a 0.5 mm long cut and each wound was inoculated with 10 μl of a Botrytis cinerea suspension containing 1×10^5 of spores/ml. […] The antifungal compositions also comprised 1.00% (w/w) methylhydroxyethylcellulose (MHEC), 0.40% (w/w) xanthan gum, 0.20% (w/w) anti-foaming agent, 0.30% (w/w) citric acid, 0.39% (w/w) lactic acid and 0.11% (w/w) potassium sorbate. The pH of the composition was 4.0. A composition without natamycin or prothioconazole was used as control. The treated strawberries were incubated in a closed box in the dark at 20° C. for 3 days.
After 2 and 3 days of incubation, the mould growth on the strawberries was assessed in a twofold manner: (i) the number of moulded strawberries per total of 12 strawberries was counted; and (ii) the antifungal activity (in %) of the individual and combined active ingredients was determined by calculating the reduction in mould growth observed on the strawberries treated with the antifungal composition in comparison to the mould growth on the strawberries treated with the control composition according to the Colby method described in Example 4 (Colby, 1967).

Fusarium proliferatum [3] = test: Treatment of wounded bananas inoculated with Fusarium proliferatum (mould growth); type: in vivo; settings: bananas 20° C.
Description: Four organic, unripe (green) bananas were used per treatment. The peel of each banana was wounded thrice using a cork borer according to the method described by de Lapeyre de Bellaire and Dubois (1987). Subsequently, each wound was inoculated with 15 μl of a Fusarium proliferatum suspension containing 1×10^5 of spores/ml. […] In addition, the antifungal compositions comprised 1.00% (w/w) methylhydroxyethylcellulose (MHEC), 0.40% (w/w) xanthan gum, 0.20% (w/w) anti-foaming agent, 0.30% (w/w) citric acid, 0.39% (w/w) lactic acid and 0.11% (w/w) potassium sorbate. The pH of the composition was 4.0. […] The treated, unripe bananas were incubated in a closed box in the dark at 20° C. and a relative air humidity of 95%, which was obtained in the presence of a saturated Na2HPO4 aqueous solution. During the first 20 days of incubation, a ripe (yellow) banana was included in the closed box to elevate the ethylene gas level and thus induce ripening of the treated, unripe bananas. […]
The expected antifungal activity (E in %) of the combined antifungal composition comprising both active ingredients was calculated according to the Colby equation (Colby, 1967): […]
wherein X and Y are the observed antifungal activities (in %) of the individual active ingredients X and Y, respectively. If the observed antifungal activity (O in %) of the combination exceeds the expected antifungal activity (E in %) of the combination and the synergy factor O/E is thus >1.0, the combined application of the active ingredients leads to a synergistic antifungal effect.

Fusarium proliferatum [4] = test: In vitro antifungal activity, 96-well microtiter plates; type: cell-based; settings: in vitro 25° C.; 10 days; natamycin 2.5 ppm, prothioconazole 0.5 ppm or both
Description: Subsequently, 100 μl of a Botrytis cinerea suspension prepared in PCB medium was used to inoculated each well with 2.5×10^3 spores/ml.
, the in vitro antifungal activity (%) of the individual active ingredients was assessed by calculating the reduction in mould growth observed in the presence of the active ingredient in comparison to the mould growth observed in the absence of the active ingredient. The expected antifungal activity (E in %) of the active ingredient combination was calculated according to the Colby equation (Colby, 1967): […]
The experiment was conducted as described in Example 13, except for the fact that the following compositions were tested:
Furthermore, Fusarium proliferatum was used for inoculation. The antifungal activity (in %) of the individual and combined active ingredients was determined according to the method described in Example 13.

## OC(Cc1ccccc1Cl)(Cn1nc[nH]c1=S)C1(Cl)CC1 (stereo not shown) [Prothioconazole, prothioconazole]
Botrytis cinerea [1]; 5 days, propiconazole 0.50 ppm, prothioconazole 0.13 ppm, or natamycin 1.25 ppm with either
  Observed antifungal activity O: 0%
Botrytis cinerea [1]; 10 days, prothioconazole 0.13 ppm or both
  Observed antifungal activity O: 50%
Penicillium italicum; 250 ppm natamycin, 150 ppm prothioconazole or both, 13 days
  Observed antifungal activity O: 86%
Penicillium italicum; 250 ppm natamycin, 150 ppm prothioconazole or both, 16 days
  Observed antifungal activity O: 82%
Penicillium italicum; 250 ppm natamycin, 150 ppm prothioconazole or both, 21 days
  Observed antifungal activity O: 71%
Penicillium italicum; 250 ppm natamycin, 150 ppm prothioconazole or both, 26 days
  Observed antifungal activity O: 63%
Penicillium italicum; 250 ppm natamycin, 150 ppm prothioconazole or both, 29 days
  Observed antifungal activity O: 40%
Penicillium italicum; 250 ppm natamycin, 150 ppm prothioconazole or both, 34 days
  Observed antifungal activity O: 27%
Penicillium italicum; 500 ppm natamycin, 600 ppm prothioconazole or both, 25 days
  Observed antifungal activity O: 91%
Penicillium italicum; 500 ppm natamycin, 600 ppm prothioconazole or both, 28 days
  Observed antifungal activity O: 83%
Penicillium italicum; 500 ppm natamycin, 600 ppm prothioconazole or both, 31 days
  Observed antifungal activity O: 71%
Penicillium italicum; 500 ppm natamycin, 600 ppm prothioconazole or both, 34 days
  Observed antifungal activity O: 63%
Botrytis cinerea [2]; 500 ppm prothioconazole or both, Day 2
  Number of moulded wounds/total number of 12 wounds (title: Number of moulded strawberries): 12/12
Botrytis cinerea [2]; 500 ppm prothioconazole or both, Day 2, listed as prothioconazole
  Number of moulded wounds/total number of 12 wounds (title: Number of moulded strawberries): 12
Botrytis cinerea [2]; 500 ppm prothioconazole or both, Day 3
  Number of moulded wounds/total number of 12 wounds (title: Number of moulded strawberries): 12/12
Botrytis cinerea [2]; 500 ppm prothioconazole or both, Day 3, listed as prothioconazole
  Number of moulded wounds/total number of 12 wounds (title: Number of moulded strawberries): 12
Botrytis cinerea [2]; 500 ppm prothioconazole (row prints 50 ppm) or both, 3 days
  Observed antifungal activity O: 21%
Botrytis cinerea [2]; 500 ppm prothioconazole or both, 2 days
  Observed antifungal activity O: 14%
Fusarium proliferatum [3]; 250 ppm natamycin, 100 ppm prothioconazole or both, Day 27
  Number of moulded wounds/total number of 12 wounds: 11/12
Fusarium proliferatum [3]; 250 ppm natamycin, 100 ppm prothioconazole or both, Day 27, listed as prothioconazole
  Number of moulded wounds/total number of 12 wounds: 11
Fusarium proliferatum [3]; 250 ppm natamycin, 100 ppm prothioconazole or both, Day 28 and 29
  Number of moulded wounds/total number of 12 wounds: 12/12
Fusarium proliferatum [3]; 250 ppm natamycin, 100 ppm prothioconazole or both, Day 28 and 29, listed as prothioconazole
  Number of moulded wounds/total number of 12 wounds: 12
Fusarium proliferatum [3]; 500 ppm natamycin, 250 ppm prothioconazole or both, Day 27, 28 and 29
  Number of moulded wounds/total number of 12 wounds: 10/12
Fusarium proliferatum [3]; 500 ppm natamycin, 250 ppm prothioconazole or both, Day 27, 28 and 29, listed as prothioconazole
  Number of moulded wounds/total number of 12 wounds: 10
Fusarium proliferatum [4]
  Observed antifungal activity O: 50%

Source: patent US20150141248A1, “ANTIFUNGAL COMPOSITIONS” (DSM IP ASSETS B.V., priority 2011, published 2015)
